Assay results taken from patent publication US20030215959A1, “Method of screening binding of a compound to a receptor” (priority 2002, published 2003).

Key:
[1] = tested on: non-NMDA glutamate receptors in mouse cortical cells; test: CNQX displacement assay with homogenized mouse cortical cells, visible difference absorption spectra; type: binding; details: homogenized mouse cortical cells with CNQX in PBS pH 7.4; test compound 100 μM; 310 nm to 450 nm; FIG. 2 traces A-B
Description: Cortical neuronal cultures: Mixed cortical cell cultures containing both neurons and astrocytes were prepared from fetal mice (15-16 day gestation) as described by Asrari and Lobner (14). Briefly, dissociated cortical cells were plated on a preexisting astrocyte monolayer in a 24-well plate (a plating density of ˜2.5×10^5 cells per well). The plating medium was Eagle's minimal essential medium (MEM) (Earle's salts, supplied glutamine-free) supplemented with 5% fetal bovine serum, 5% horse serum, 2 mM glutamine and 20 mM glucose. Non-neuronal cell division was halted at 3-5 days in vitro by 3-day exposure to […] cytosine arabinoside. Cultures were maintained in humidified 5% CO2 incubators at 37° C. and were used for experiments at 14-16 days in vitro.
Absorption measurements: The UV-visible absorption spectra were obtained using Agilent 8453 or Shimadzu UV 2501 spectrometers. The spectra were recorded in the 310 nm to 450 nm range, at a spectral resolution of 2 nm, using a 1 cm quartz cuvette as the sample holder. […]
Dissociated mouse cortical cells were obtained as outlined in the Materials and Methods section. […] CNQX was added to the cells such that the final absorption of the sample in the 310 nm to 450 nm range was less than 1 absorbance unit. […]

[2] = target: T1, GluR2-S1S2 (ligand-binding domain of the GluR2 subunit of the glutamate receptor) (Rattus norvegicus, UniProt P19491); test: Quinoxaline (CNQX) displacement assay with GluR2-S1S2, visible difference absorption spectra; details: GluR2-S1S2 bound to 25 μM CNQX; test ligand 50 μM; phosphate buffer pH 7.4; 310 nm to 450 nm; FIG. 1 traces B-E
T1 construct: made in house
T1 sequence (P19491 411-527): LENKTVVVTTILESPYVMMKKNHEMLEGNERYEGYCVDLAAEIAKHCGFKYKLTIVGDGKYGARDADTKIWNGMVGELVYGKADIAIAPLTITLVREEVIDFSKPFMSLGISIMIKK
T1 sequence (P19491 653-796): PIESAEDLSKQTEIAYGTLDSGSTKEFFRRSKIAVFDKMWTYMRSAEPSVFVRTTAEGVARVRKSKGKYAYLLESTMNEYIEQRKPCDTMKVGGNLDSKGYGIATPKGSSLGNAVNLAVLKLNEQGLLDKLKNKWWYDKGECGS
Description: To begin, a baseline or control spectrum of the free quinoxaline derivative in buffer solution is generated. A second spectrum is then taken of the quinoxaline admixed with the receptor under investigation. A difference spectrum is then generated between the first spectrum (free quinoxaline) and second spectrum (protein-bound quinoxaline). The characteristic features of this difference spectrum arise due to changes in the electronic spectrum of the quinoxaline derivative bound to the protein as compared to the electronic spectrum of the free quinoxaline. Thus, the difference spectrum can be used as the control to test for compounds that compete for the same binding site as quinoxaline derivative.
With the difference spectrum in hand as a control, a known amount of a test agent is added to a test well containing the receptor protein and the quinoxaline derivative. […] A visible spectrum is than taken of the test well. This test spectrum is then compared to the control spectrum to see if they share the same characteristic changes in the electronic character of the quinoxaline. […]

SMILES | displacement of CNQX from the non-NMDA glutamate receptors in cortical cells (difference spectrum) [1] | displacement of bound CNQX from the receptor protein (difference spectrum) [2]
N[C@@H](CCC(=O)O)C(=O)O [glutamate] | is displaced by the addition of glutamate | 
NCCCC(=O)O [γ-amino butyric acid] | CNQX is not displaced | does not displace CNQX from the protein
